Measured values from ChEMBL document CHEMBL1140646, “Design of a partial PPARdelta agonist” (Bioorg Med Chem Lett, 2007).

Key:
[1] = molecular target: T1, Peroxisome proliferator-activated receptor alpha (Homo sapiens) (UniProt Q07869); assay: Agonist activity at human PPARalpha by transactivation assay relative to NNC61-4655; format: functional
T1 sequence (whole entry): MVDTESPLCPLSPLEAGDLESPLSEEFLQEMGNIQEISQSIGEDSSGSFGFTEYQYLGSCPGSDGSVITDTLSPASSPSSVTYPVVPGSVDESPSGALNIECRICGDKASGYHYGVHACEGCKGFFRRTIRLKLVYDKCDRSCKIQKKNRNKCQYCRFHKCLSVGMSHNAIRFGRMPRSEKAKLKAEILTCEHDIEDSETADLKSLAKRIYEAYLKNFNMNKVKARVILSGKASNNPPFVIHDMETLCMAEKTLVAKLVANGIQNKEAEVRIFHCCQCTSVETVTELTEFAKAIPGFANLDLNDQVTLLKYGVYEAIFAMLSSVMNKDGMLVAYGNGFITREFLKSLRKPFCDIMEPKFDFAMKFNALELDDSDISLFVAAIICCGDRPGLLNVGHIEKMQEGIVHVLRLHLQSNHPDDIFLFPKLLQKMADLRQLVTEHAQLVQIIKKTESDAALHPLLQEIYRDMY

[2] = molecular target: T2, Peroxisome proliferator-activated receptor alpha (Homo sapiens, UniProt Q07869); assay: Agonist activity at human PPARalpha by transactivation assay; format: functional
T2 sequence (Q07869 whole entry): T1 sequence (whole entry)

[3] = molecular target: T3, Peroxisome proliferator-activated receptor delta (Homo sapiens, UniProt Q03181)
T3 sequence (Q03181 whole entry): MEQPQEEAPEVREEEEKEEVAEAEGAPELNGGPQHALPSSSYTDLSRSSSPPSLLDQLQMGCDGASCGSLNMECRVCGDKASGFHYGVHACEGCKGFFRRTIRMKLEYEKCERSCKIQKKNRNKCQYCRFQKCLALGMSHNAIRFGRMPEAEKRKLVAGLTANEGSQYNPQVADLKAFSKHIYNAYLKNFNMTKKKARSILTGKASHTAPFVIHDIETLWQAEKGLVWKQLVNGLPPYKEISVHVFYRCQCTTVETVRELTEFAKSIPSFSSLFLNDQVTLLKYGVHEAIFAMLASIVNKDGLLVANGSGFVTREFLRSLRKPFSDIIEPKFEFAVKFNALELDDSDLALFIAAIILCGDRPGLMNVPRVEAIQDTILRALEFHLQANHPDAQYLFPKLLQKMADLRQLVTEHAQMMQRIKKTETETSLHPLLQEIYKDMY

[4] = molecular target: T4, Peroxisome proliferator-activated receptor gamma (Homo sapiens, UniProt P37231); format: functional
T4 sequence (P37231 whole entry): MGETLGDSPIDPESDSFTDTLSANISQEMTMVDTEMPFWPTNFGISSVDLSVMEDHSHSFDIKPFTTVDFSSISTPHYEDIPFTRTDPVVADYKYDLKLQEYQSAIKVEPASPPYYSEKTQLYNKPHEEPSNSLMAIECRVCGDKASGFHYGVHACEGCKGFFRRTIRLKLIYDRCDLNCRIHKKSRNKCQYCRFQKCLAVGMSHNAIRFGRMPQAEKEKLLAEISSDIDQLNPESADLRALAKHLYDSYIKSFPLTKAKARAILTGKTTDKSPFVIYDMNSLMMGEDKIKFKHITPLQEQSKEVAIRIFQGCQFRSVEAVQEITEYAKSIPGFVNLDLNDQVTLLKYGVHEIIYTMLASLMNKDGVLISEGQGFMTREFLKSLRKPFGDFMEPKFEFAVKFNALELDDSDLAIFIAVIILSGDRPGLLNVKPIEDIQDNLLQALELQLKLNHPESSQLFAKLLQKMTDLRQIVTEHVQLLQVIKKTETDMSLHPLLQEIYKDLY

Structure (SMILES)	Activity [1] [%]	EC50 [2] [µM]	EC50 [3] [µM]	EC50 [4] [µM]
Cc1cc(Sc2cc(C#CCN3CCOCC3)nc(C#Cc3ccc(C(F)(F)F)cc3)c2)ccc1OCC(=O)O	50	0.1	0.05	5.5
O=C(O)COc1ccc(Sc2cc(C#CCN3CCOCC3)nc(C#Cc3ccc(C(F)(F)F)cc3)c2)c2c1CCC2	< 10	–	0.13	–
Cc1cc(SCc2sc(-c3ccc(C(F)(F)F)cc3)nc2C)ccc1OCC(=O)O	68	–	–	–
